From BindingDB's records for doi:10.1016/j.ab.2009.08.013 (Novartis Institute For Tropical Diseases, 2009)
Non-standard residues stand in square brackets, D forms with d. Residues, ends and D or L forms follow the SMILES beside them. *: point of attachment. Nle = CCCC[C@H](N)C(=O)O; Bz = O=C(c1ccccc1)*

Assays:
[1] = target: T1, Genome polyprotein [1066-1250,R1182K]/[1394-1440,K1405R,D1408E] (dengue virus type 2, UniProt P14340+P27914, D1408E/K1405R/R1182K); assay: Enzyme Inhibition Assay; details: pH 7.5; 37 °C
T1 construct: 1066-1250; 1394-1440
Method: (§1) Inhibitors were assayed in a 96-well plate format. […] The reaction was initiated by the addition of substrate Bz-nKRR-AMC. Reaction progress was monitored continuously by following the increase in fluorescence on a Tecan Safire2 plate reader. IC50 values of inhibitors were derived by fitting the calculated initial velocities to a nonlinear regression curve using GraphPad Prism software. Each point of the IC50 curve was measured in duplicate during a single experiment.

[2] = target: T2, Genome polyprotein [1393-1439,E1407V]/[1476-1660,R1508K,A1566M] (dengue virus type 1, UniProt P17763+P33478, A1566M/E1407V/R1508K); assay: Enzyme Inhibition Assay; details: pH 7.5; 37 °C
T2 construct: 1393-1439; 1476-1660
Method: as §1

[3] = target: T3, Genome polyprotein [1394-1440]/[1476-1660,T1585M] (dengue virus type 3, UniProt P27915+Q6YMS4, T1585M); assay: Enzyme Inhibition Assay
T3 construct: 1394-1440; 1476-1660
Method: as §1

[4] = target: T4, Genome polyprotein [1394-1440]/[1476-1660] (dengue virus type 4, UniProt Q58HT7); assay: Enzyme Inhibition Assay
T4 construct: 1394-1440; 1476-1660
Method: as §1

[5] = target: T1, Genome polyprotein [1066-1250,R1182K]/[1394-1440,K1405R,D1408E]; assay: Enzyme Inhibition Assay (IC50) and Fluorescence Quench Assay (KD); details: pH 7.5; 37 °C
Method: (§2) Inhibitors were assayed in a 96-well plate format. […] The reaction was initiated by the addition of substrate Bz-nKRR-AMC. Reaction progress was monitored continuously by following the increase in fluorescence on a Tecan Safire2 plate reader. IC50 values of inhibitors were derived by fitting the calculated initial velocities to a nonlinear regression curve using GraphPad Prism software. Each point of the IC50 curve was measured in duplicate during a single experiment. Compounds were tested for binding (KD) using fluorescence quench assay. Two protein solutions were prepared (2-5 uM protein with and without 40 uM compound) and were mixed in a microplate to obtain 12 different compound concentrations ranging from 0 to 40 uM. Then each dilution comprising 90 ul was transferred to a UV-Star 96-well microplate. […] Binding curves were analyzed according to the two-state model describing the formation of a 1:1 complex. Kd values were obtained from curve-fit of binding isotherms.

[6] = target: T5, Genome polyprotein [1424-1463]/[1502-1685] (West Nile virus, UniProt P06935); assay: as above; details: pH 7.5; 37 °C
T5 construct: 1424-1463; 1502-1685
T5 sequence (P06935 whole entry) 1: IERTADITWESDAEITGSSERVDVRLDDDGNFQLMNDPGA
T5 sequence (P06935 whole entry) 2: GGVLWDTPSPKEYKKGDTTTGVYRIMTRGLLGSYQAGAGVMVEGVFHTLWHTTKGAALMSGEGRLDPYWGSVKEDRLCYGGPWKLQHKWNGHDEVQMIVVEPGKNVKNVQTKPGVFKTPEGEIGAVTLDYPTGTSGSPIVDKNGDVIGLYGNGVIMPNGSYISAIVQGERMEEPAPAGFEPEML
Method: as §2

[7] = target: T5, Genome polyprotein [1424-1463]/[1502-1685]; assay: Enzyme Inhibition Assay; details: pH 7.5; 37 °C
Method: as §1

T2 sequence (P17763 1476-1660, looked up, stated change not applied): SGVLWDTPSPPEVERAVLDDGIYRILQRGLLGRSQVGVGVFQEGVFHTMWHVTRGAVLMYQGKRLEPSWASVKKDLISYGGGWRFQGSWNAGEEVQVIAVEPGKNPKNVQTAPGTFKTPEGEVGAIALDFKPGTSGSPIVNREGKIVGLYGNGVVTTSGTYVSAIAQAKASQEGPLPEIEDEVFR
T2 sequence (P33478 1393-1439, looked up, stated change not applied): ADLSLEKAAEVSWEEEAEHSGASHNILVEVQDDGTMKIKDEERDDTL
T4 sequence (Q58HT7 1394-1440): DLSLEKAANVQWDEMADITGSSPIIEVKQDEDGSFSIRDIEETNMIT
T4 sequence (Q58HT7 1476-1660): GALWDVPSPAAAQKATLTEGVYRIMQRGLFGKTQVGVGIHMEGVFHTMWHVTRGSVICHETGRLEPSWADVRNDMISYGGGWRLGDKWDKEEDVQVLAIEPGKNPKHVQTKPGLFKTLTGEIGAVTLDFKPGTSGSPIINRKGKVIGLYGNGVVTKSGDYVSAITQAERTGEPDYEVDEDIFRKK
T3 sequence (P27915 1394-1440, stated change not applied): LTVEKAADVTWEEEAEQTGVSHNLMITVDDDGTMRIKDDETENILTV
T3 sequence (Q6YMS4 1476-1660, looked up, stated change not applied): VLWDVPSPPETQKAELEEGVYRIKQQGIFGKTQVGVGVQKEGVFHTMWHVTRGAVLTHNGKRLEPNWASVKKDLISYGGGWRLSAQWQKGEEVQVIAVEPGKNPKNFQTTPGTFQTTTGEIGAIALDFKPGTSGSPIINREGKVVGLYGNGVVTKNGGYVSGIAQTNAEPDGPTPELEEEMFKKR
T1 sequence (P14340 1394-1440, looked up, stated change not applied): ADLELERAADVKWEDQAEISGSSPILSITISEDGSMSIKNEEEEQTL
T1 sequence (P27914 1066-1250, looked up, stated change not applied): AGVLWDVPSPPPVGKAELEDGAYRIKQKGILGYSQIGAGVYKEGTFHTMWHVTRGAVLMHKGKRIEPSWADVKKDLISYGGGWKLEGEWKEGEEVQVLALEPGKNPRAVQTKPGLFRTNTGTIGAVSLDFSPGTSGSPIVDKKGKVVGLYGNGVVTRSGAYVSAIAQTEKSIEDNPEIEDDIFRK

| SMILES | IC50 [1] [µM] | IC50 [2] [µM] | IC50 [3] [µM] | IC50 [4] [µM] | IC50 [5] [µM] | Kd [5] [µM] | Kd [6] [µM] | IC50 [6] [µM] | IC50 [7] [µM] |
| --- | --- | --- | --- | --- | --- | --- | --- | --- | --- |
| CCCC[C@H](NC(=O)c1ccccc1)C(=O)N[C@@H](CCCCN)C(=O)N[C@@H](CCCNC(=N)N)C(=O)N[C@H](C=O)CCCNC(=N)N [Bz-Nle-Lys-Arg-Arg-H] (Bz-[Nle]KRR-aldehyde) | 8.9 | 11.8 | 7.9 | 1.4 | – | – | – | – | – |
| CC1CNC(c2ccc(Nc3nnc(Nc4ccc(C5=NC(C)CN5)cc4)c4ccccc34)cc2)=N1 (configuration not stated) [phthalazine-based compound, 1] | – | 36.4 | 17.5 | 32.8 | 6 | 7.2 | 21 | – | – |
| c1ccc(-c2ccc(Nc3nnc(Nc4ccc(C5=NCCN5)cc4)c4ccccc34)cc2)cc1 [phthalazine-based compound, 2] | – | 2 | 1.6 | 2 | 2.3 | – | – | 3.6 | – |
| c1ccc2c(Nc3ccc(C4=NC5CCCCC5N4)cc3)nnc(Nc3ccc(C4=NC5CCCCC5N4)cc3)c2c1 (configuration not stated) [phthalazine-based compound, 3] | – | 10.7 | 8.5 | 13.6 | 1.1 | 7.7 | 90 | 22 | – |
| c1ccc2c(Nc3ccc4c(c3)CNCC4)nnc(Nc3ccc(C4=NCCN4)cc3)c2c1 [phthalazine-based compound, 4] | – | 233 | 100 | 64.8 | 27.4 | 22.9 | 4.6 | – | – |
| NCc1ccc(Nc2nnc(Nc3ccc(C4=NCCN4)cc3)c3ccccc23)cc1 [phthalazine-based compound, 5] | – | 12.3 | 8.7 | 8.2 | 5.8 | 18.6 | 100 | – | – |
| c1ccc2c(Nc3ccc4c(c3)CCNC4)nnc(Nc3ccc(C4=NCCN4)cc3)c2c1 [phthalazine-based compound, 6] | – | 170 | 86 | 43 | 55 | 54 | 7 | 6.2 | – |
| COC(=O)c1ccc(-c2ccc(Nc3nnc(Nc4ccc(C5=NCCN5)cc4)c4ccccc34)cc2)cc1 [phthalazine-based compound, 7] | – | 2.72 | 1 | 1.3 | 1.6 | – | – | 2.2 | – |
| c1ccc2c(Nc3ccc(C4=NCCN4)cc3)nnc(Nc3ccc(C4=NCCN4)cc3)c2c1 [phthalazine-based compound, 8] | – | 21.4 | 27.9 | 19.8 | 10.2 | 16.3 | – | – | 16 |
| Nc1ccc2c(Nc3ccc(C4=NCCN4)cc3)nnc(Nc3ccc(C4=NCCN4)cc3)c2c1 [phthalazine-based compound, 9] | – | > 100 | > 100 | > 100 | > 100 | 100 | – | – | – |
